For one assay, the system named is KMS-12BM cells. The assay can be described thus: Apoptosis by flow cytometry, Annexin-V and ToPro3 staining, after proteasome inhibitor pulse. As to conditions: then 3 days treatment, AnnV+/ToPro3+; for apoptosis / cell killing in combination with bortezomib: 1 hour pulse with bortezomib; for apoptosis / cell killing in combination with carfilzomib: 1 hour pulse with carfilzomib. It counts as cell-based. The procedure:
Apoptosis was measured in KMS-12BM cells by flow cytometry using Annexin-V (AnnV+; x-axis) and ToPro3+ (y-axis) staining after either vehicle (DMSO), pomalidomide (POM) or Compound A-S treatment over 3 days following 1 hour pulse treatment with DMSO, Bortezomib (BORT) or Carfilzomib (CFZ) at indicated concentrations.
On the technique in general: In flow cytometry, cells or beads pass a laser one at a time.

In another assay the test system is MM1.S cells. The assay can be described thus: Anti-proliferative activity by 3H-thymidine incorporation, combination with bortezomib. It counts as cell-based. As to conditions: 3 days, bortezomib 62.5 and 125.0 pM, pomalidomide 0.001-1.0 μM or Compound A-S 0.1-10.0 nM. The protocol:
The anti-proliferative activity of pomalidomide (treatment of cells with 0.001-1.0 μM) combined with bortezomib (62.5 and 125.0 pM) or Compound A-S (treatment of cells with 0.1-10.0 nM) combined with bortezomib (62.5 and 125.0 pM) was measured by 3H-thymidine incorporation in MM1.S cells after 3 days of treatment in each condition. Combination indices (CI) were calculated using the Chou-Talalay Method for each combination. CI values below 1 indicated synergistic activity of combination.
Background: Dividing cells build labelled thymidine or BrdU into new DNA.

“Also recorded” adds a separate entry of the source.

The source of these data is patent US20230023070A1, “Therapy for the Treatment of Cancer” (Celegene Corporation, priority 2019, published 2023).

Turning to `Nc1cccc2c1C(=O)N(C1CCC(=O)NC1=O)C2=O` (stereo not drawn) [pomalidomide, reference compound], in the assay with KMS-12BM cells, the “apoptosis / cell killing in combination with bortezomib” value is “induced cell killing” and the “apoptosis / cell killing in combination with carfilzomib” value is listed as “induced cell killing”. The “anti-proliferative activity in combination with bortezomib (combination index, Chou-Talalay; CI below 1 = synergistic)” value in the assay on MM1.S cells is recorded as “synergistic”.
With `O=C1CC[C@H](N2Cc3c(OCc4ccc(CN5CCOCC5)cc4)cccc3C2=O)C(=O)N1` [Compound A-S, (S)-3-(4-((4-(morpholinomethyl)benzyl)oxy)-1-oxoisoindolin-2-yl)piperidine-2,6-dione], in the assay on KMS-12BM cells, the “apoptosis / cell killing in combination with bortezomib” value was “induced cell killing; also recorded: apoptosis induced” and the “apoptosis / cell killing in combination with carfilzomib” value is given as “induced cell killing; also recorded: apoptosis induced”. In addition, the “anti-proliferative activity in combination with bortezomib (combination index, Chou-Talalay; CI below 1 = synergistic)” value in the assay on MM1.S cells is listed as “synergistic”.
